# Results as given in ChEMBL document CHEMBL1201862, “PubChem BioAssay data set” (2004).
#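 Each compound was tested at five concentrations against cells in 96-well plates for 48 hours. GI50: concentration for 50% inhibition of growth.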 Calls of active or inactive are those of the source. No stated cut-off is given here; in the data, active = GI50 up to about 1.1 µM and inactive = higher.
# How the values were obtained:
# Assay in all cases: DTP human tumour cell line panel, 48 h
# KM12 = test system: KM12
# MDA-MB-231 = test system: MDA-MB-231
# CAKI-1 = test system: CAKI-1
# DU-145 = test system: DU-145
# SK-MEL-5 = test system: SK-MEL-5
# MDA-MB-435 = test system: MDA-MB-435
# A549 = test system: A549
# RPMI-8226 = test system: RPMI-8226
# SN12C = test system: SN12C
# OVCAR-4 = test system: OVCAR-4
# OVCAR-8 = test system: OVCAR-8
# SF-295 = test system: SF-295
# UO-31 = test system: UO-31
# LOX IMVI = test system: LOX IMVI
# M14 = test system: M14
# HCT-15 = test system: HCT-15
# SNB-19 = test system: SNB-19
# NCI-H226 = test system: NCI-H226
# HCC 2998 = test system: HCC 2998
# Malme-3M = test system: Malme-3M
SMILES,GI50 (KM12),GI50 (MDA-MB-231),GI50 (CAKI-1),GI50 (DU-145),GI50 (SK-MEL-5),GI50 (MDA-MB-435),GI50 (A549),GI50 (RPMI-8226),GI50 (SN12C),GI50 (OVCAR-4),GI50 (OVCAR-8),GI50 (SF-295),GI50 (UO-31),GI50 (LOX IMVI),GI50 (M14),GI50 (HCT-15),GI50 (SNB-19),GI50 (NCI-H226),GI50 (HCC 2998),GI50 (Malme-3M)
Cc1[nH]c(C)c(CN(C)C)c1CN(C)C,> 100 µM (inactive),> 100 µM (inactive),> 100 µM (inactive),> 100 µM (inactive),> 100 µM (inactive),> 100 µM (inactive),> 100 µM (inactive),> 100 µM (inactive),> 100 µM (inactive),> 100 µM (inactive),> 100 µM (inactive),> 100 µM (inactive),> 100 µM (inactive),> 100 µM (inactive),> 100 µM (inactive),> 100 µM,> 100 µM (inactive),> 100 µM (inactive),> 100 µM (inactive),> 100 µM (inactive)
C1CN1c1nc(N2CC2)nc(N2CC2)n1,16.2 µM (inactive),20.2 µM (inactive),2.19 µM (inactive),2.78 µM (inactive),6.19 µM (inactive),12.6 µM (inactive),4.29 µM (inactive),12.5 µM (inactive),2.95 µM (inactive),16.2 µM (inactive),7.55 µM (inactive),2.37 µM (inactive),7.36 µM (inactive),3.08 µM (inactive),4.84 µM (inactive),12.9 µM,6.65 µM (inactive),8.24 µM (inactive),8.87 µM (inactive),11.7 µM (inactive)
N#CC(C#N)=C(N)/C(C#N)=C/c1cc(O)c(O)c(Br)c1,75.9 µM (inactive),88.5 µM (inactive),> 100 µM (inactive),97.5 µM (inactive),60.3 µM (inactive),78.5 µM (inactive),59.4 µM (inactive),> 100 µM (inactive),> 69.3 µM (inactive),38.6 µM (inactive),48.1 µM (inactive),> 82 µM (inactive),42.4 µM (inactive),42 µM (inactive),> 75.9 µM (inactive),48.8 µM,> 67.3 µM (inactive),21.1 µM (inactive),> 74 µM (inactive),85.7 µM (inactive)
O=[N+]([O-])/C(Cl)=C(\NCCO)C(Cl)=C(Cl)Cl,> 89.1 µM (inactive),> 64.9 µM (inactive),> 86.7 µM (inactive),> 100 µM (inactive),> 96.4 µM (inactive),55.8 µM (inactive),> 100 µM (inactive),16.1 µM (inactive),43 µM (inactive),59.4 µM (inactive),52.8 µM (inactive),> 100 µM (inactive),> 74.5 µM (inactive),70 µM (inactive),38.8 µM (inactive),30.8 µM,> 100 µM (inactive),> 100 µM (inactive),> 100 µM (inactive),32.5 µM (inactive)
Fc1cc(-c2cc(-c3ccc4c(c3)OCO4)n[nH]2)c(Cl)cc1Cl,3.01 µM (inactive),1.75 µM (inactive),3.18 µM (inactive),3.34 µM (inactive),6.38 µM (inactive),4.88 µM (inactive),2.72 µM (inactive),4.54 µM (inactive),2.7 µM (inactive),1.91 µM (inactive),1.85 µM (inactive),3.05 µM (inactive),2.51 µM (inactive),2.95 µM (inactive),4.75 µM (inactive),7.71 µM,3.5 µM (inactive),1.99 µM (inactive),4.94 µM (inactive),4.94 µM (inactive)
CCCCCCCCCCCC(=O)OC[C@@H](C[As](=O)(O)O)OC(=O)CCCCCCCCCCC,5.02 µM (inactive),3.52 µM (inactive),11.1 µM (inactive),18.1 µM (inactive),1.82 µM (inactive),3.85 µM (inactive),14.2 µM (inactive),6.87 µM (inactive),7 µM (inactive),14.2 µM (inactive),9.98 µM (inactive),13.2 µM (inactive),14.8 µM (inactive),4.24 µM (inactive),2.49 µM (inactive),9.04 µM,3.07 µM (inactive),16.4 µM (inactive),7.57 µM (inactive),3.41 µM (inactive)
C=C(C)[C@@H]1CC[C@]2(C)CC[C@]3(C)[C@H](CC[C@@H]4[C@@]5(C)CC[C@H](OC(=O)c6ccccc6)C(C)(C)[C@@H]5CC[C@]43C)[C@@H]12,> 100 µM (inactive),> 100 µM (inactive),> 100 µM (inactive),> 100 µM (inactive),> 100 µM (inactive),> 100 µM (inactive),> 100 µM (inactive),> 100 µM (inactive),> 100 µM (inactive),> 100 µM (inactive),> 100 µM (inactive),> 100 µM (inactive),> 100 µM (inactive),> 100 µM (inactive),> 100 µM (inactive),> 100 µM,> 100 µM (inactive),> 100 µM (inactive),> 100 µM (inactive),> 100 µM (inactive)
O=C1NC(c2cccc(OCc3ccccc3)c2)Nc2ccccc21 (stereo not drawn),17.5 µM (inactive),0.251 µM (active),0.628 µM (active),0.172 µM (active),0.0326 µM (active),0.023 µM (active),0.13 µM (active),0.0416 µM (active),0.119 µM (active),13.7 µM (inactive),0.315 µM (active),0.114 µM (active),4.55 µM (inactive),0.252 µM (active),0.181 µM (active),0.0805 µM,0.324 µM (active),0.274 µM (active),0.243 µM (active),0.0897 µM (active)
C=CCOC(=O)C1C2OC3(C(C(=O)OC)=C2C(=O)OC)c2ccccc2CCC13 (stereo not drawn),> 10 µM (inactive),> 10 µM (inactive),> 10 µM (inactive),> 10 µM (inactive),> 10 µM (inactive),> 10 µM (inactive),> 10 µM (inactive),> 10 µM (inactive),> 10 µM (inactive),> 10 µM (inactive),> 10 µM (inactive),> 10 µM (inactive),> 10 µM (inactive),> 10 µM (inactive),> 10 µM (inactive),> 10 µM,> 10 µM (inactive),> 10 µM (inactive),> 10 µM (inactive),> 10 µM (inactive)
COCOc1cc(OCOC)cc(C(=O)Oc2ccccc2)c1,> 100 µM (inactive),> 100 µM (inactive),> 100 µM (inactive),> 100 µM (inactive),> 100 µM (inactive),> 100 µM (inactive),> 100 µM (inactive),61.7 µM (inactive),> 100 µM (inactive),> 100 µM (inactive),> 100 µM (inactive),> 100 µM (inactive),78.5 µM (inactive),> 100 µM (inactive),> 100 µM (inactive),> 100 µM,> 100 µM (inactive),> 100 µM (inactive),> 100 µM (inactive),> 100 µM (inactive)
C=C1c2nc3ccccc3n2C=C(c2ccc(C)cc2)N1c1ccc(OC)cc1,5.56 µM (inactive),> 100 µM (inactive),36.1 µM (inactive),> 100 µM (inactive),13.7 µM (inactive),3.04 µM (inactive),47.5 µM (inactive),13 µM (inactive),> 94.4 µM (inactive),> 94.2 µM (inactive),75.5 µM (inactive),33.7 µM (inactive),44.5 µM (inactive),50.1 µM (inactive),58.2 µM (inactive),9.51 µM,> 100 µM (inactive),27.9 µM (inactive),31.8 µM (inactive),21.8 µM (inactive)
CN1CCc2cc(N)cc3c2C1Cc1ccc(O)c(O)c1-3 (stereo not drawn),33.4 µM (inactive),75 µM (inactive),37.2 µM (inactive),56.6 µM (inactive),20.4 µM (inactive),36.8 µM (inactive),34.2 µM (inactive),21.8 µM (inactive),34.5 µM (inactive),31.6 µM (inactive),30.7 µM (inactive),39.8 µM (inactive),42.8 µM (inactive),18.6 µM (inactive),34 µM (inactive),36.4 µM,46.6 µM (inactive),32.7 µM (inactive),12.6 µM (inactive),37.8 µM (inactive)
Cc1ccsc1/C=N/Nc1ncccn1,32.4 µM (inactive),> 100 µM (inactive),> 100 µM (inactive),> 100 µM (inactive),> 100 µM (inactive),> 100 µM (inactive),> 100 µM (inactive),> 100 µM (inactive),> 100 µM (inactive),> 100 µM (inactive),> 100 µM (inactive),> 100 µM (inactive),> 100 µM (inactive),> 100 µM (inactive),> 100 µM (inactive),> 100 µM,> 100 µM (inactive),> 100 µM (inactive),> 100 µM (inactive),> 100 µM (inactive)
COc1ccc2nc3cc([N+](=O)[O-])ccc3c(Nc3ccc(S(=O)(=O)NC(C)=O)cc3)c2c1,–,50 µM (inactive),> 100 µM (inactive),90.6 µM (inactive),16.6 µM (inactive),76.4 µM (inactive),> 100 µM (inactive),22.1 µM (inactive),> 100 µM (inactive),> 100 µM (inactive),–,> 100 µM (inactive),73.6 µM (inactive),93.3 µM (inactive),> 100 µM (inactive),71.1 µM,> 100 µM (inactive),> 100 µM (inactive),56.6 µM (inactive),> 100 µM (inactive)
